# Assay results as given in patent US20260356860A1, “2-SUBSTITUTED 3,4A,5,7,8,8A-HEXAHYDRO-4H-THIOPYRANO[4,3-DJPYRIMIDIN-4-ONES FOR WOUND TREATMENT” (priority 2022, published 2026).
# Assays:
# Test in all cases: Bacteriostasis, log reduction
# Type in all cases: cell-based
# [1] = system: A. baumannii (derived from ATCC ® 19606 ™); settings: A. baumannii ATCC 19606
# [2] = system: S. aureus (derived from ATCC ® 6538 ™); settings: S. aureus ATCC 6538
# [3] = system: E. coli (derived from ATCC ® 8739 ™); settings: E. coli ATCC 8739
# [4] = system: S. epidermidis (derived from ATCC ® 14990 ™); settings: S. epidermidis ATCC 14990
# [5] = system: P. vulgaris (derived from ATCC ® 8427 ™); settings: P. vulgaris ATCC 8427
# [6] = system: E. coli 0157:H7 (derived from ATCC ® 12900 ™); settings: E. coli 0157:H7 ATCC 12900
# [7] = system: S. maltophilia (derived from ATCC ® 13637 ™); settings: S. maltophilia ATCC 13637
# [8] = system: P. aeruginosa (derived from ATCC ® 15442 ™); settings: P. aeruginosa ATCC 15442
# [9] = system: S. aureus (MRSA) (derived from ATCC ® 33593 ™); settings: S. aureus (MRSA) ATCC 33593
# [10] = system: K. pneumoniae (derived from ATCC ® 10031 ™); settings: K. pneumoniae ATCC 10031
# [11] = system: E. coli (derived from ATCC ® 25922 ™); settings: E. coli ATCC 25922
# [12] = system: P. aeruginosa (derived from ATCC ® 9027 ™); settings: P. aeruginosa ATCC 9027
smiles,measurement,setting,value
"O=c1[nH]c(-c2ccc(-c3ccc(B(O)O)cc3)cc2)nc2c1CSCC2 [Compound 10, (4′-(4-oxo-3,5,7,8-tetrahydro-4H-thiopyrano[4,3-d]pyrimidin-2-yl)-[1,1′-biphenyl]-4-yl)boronic acid]",Average result,[1]; 24 h,<200
same,Log Reduction,[1]; 24 h,>3.0
same,Log Value,[1]; 24 h,<2.3
same,Average result,[1]; 72 h,<200
same,Log Reduction,[1]; 72 h,>3.0
same,Log Value,[1]; 72 h,<2.3
same,Average result,[2]; 24 h,1.5 × 10^5
same,Log Reduction,[2]; 24 h,0.1
same,Log Value,[2]; 24 h,5.2
same,Average result,[2]; 72 h,6.7 × 10^3
same,Log Reduction,[2]; 72 h,1.5
same,Log Value,[2]; 72 h,3.8
same,Average result,[3]; 24 h,<200
same,Log Reduction,[3]; 24 h,>3.2
same,Log Value,[3]; 24 h,<2.1
same,Average result,[3]; 72 h,6.0 × 10^2
same,Log Reduction,[3]; 72 h,2.5
same,Log Value,[3]; 72 h,2.8
same,Average result,[4]; 24 h,1.1 × 10^4
same,Log Reduction,[4]; 24 h,0.8
same,Log Value,[4]; 24 h,4.0
same,Average result,[4]; 72 h,3.3 × 10^2
same,Log Reduction,[4]; 72 h,2.3
same,Log Value,[4]; 72 h,2.5
same,Average result,[5]; 24 h,<200
same,Log Reduction,[5]; 24 h,>3.6
same,Log Value,[5]; 24 h,<2.3
same,Average result,[5]; 72 h,<200
same,Log Reduction,[5]; 72 h,>3.6
same,Log Value,[5]; 72 h,<2.3
same,Average result,[6]; 24 h,<200
same,Log Reduction,[6]; 24 h,>1.9
same,Log Value,[6]; 24 h,<2.3
same,Average result,[6]; 72 h,<200
same,Log Reduction,[6]; 72 h,>1.9
same,Log Value,[6]; 72 h,<2.3
same,Average result,[7]; 24 h,<200
same,Log Reduction,[7]; 24 h,>2.8
same,Log Value,[7]; 24 h,<2.3
same,Average result,[7]; 72 h,<200
same,Log Reduction,[7]; 72 h,>2.8
same,Log Value,[7]; 72 h,<2.3
same,Average result,[8]; 24 h,<200
same,Log Reduction,[8]; 24 h,>3.1
same,Log Value,[8]; 24 h,<2.3
same,Average result,[8]; 72 h,<200
same,Log Reduction,[8]; 72 h,>3.1
same,Log Value,[8]; 72 h,<2.3
same,Average result,[9]; 24 h,3.1 × 10^4
same,Log Reduction,[9]; 24 h,0.1
same,Log Value,[9]; 24 h,4.5
same,Average result,[9]; 72 h,2.7 × 10^3
same,Log Reduction,[9]; 72 h,1.2
same,Log Value,[9]; 72 h,3.4
same,Average result,[10]; 24 h,<200
same,Log Reduction,[10]; 24 h,>2.5
same,Log Value,[10]; 24 h,<2.3
same,Average result,[10]; 72 h,<200
same,Log Reduction,[10]; 72 h,>2.5
same,Log Value,[10]; 72 h,<2.3
same,Average result,[11]; 24 h,<200
same,Log Reduction,[11]; 24 h,>3.1
same,Log Value,[11]; 24 h,<2.3
same,Average result,[11]; 72 h,<200
same,Log Reduction,[11]; 72 h,>3.1
same,Log Value,[11]; 72 h,<2.3
same,Average result,[12]; 24 h,<200
same,Log Reduction,[12]; 24 h,>3.0
same,Log Value,[12]; 24 h,<2.3
same,Average result,[12]; 72 h,<200
same,Log Reduction,[12]; 72 h,>3.0
same,Log Value,[12]; 72 h,<2.3
"COC(=O)NCCOC(C)(C)c1ccc(-c2nc3c(c(=O)[nH]2)CSCC3)cc1 [Compound 18, methyl (2-((2-(4-(4-oxo-3,5,7,8-tetrahydro-4H-thiopyrano[4,3-d]pyrimidin-2-yl)phenyl)propan-2-yl)oxy)ethyl)carbamate]",Average result,[1]; 24 h,<200
same,Log Reduction,[1]; 24 h,>3.0
same,Log Value,[1]; 24 h,<2.3
same,Average result,[1]; 72 h,<200
same,Log Reduction,[1]; 72 h,>3.0
same,Log Value,[1]; 72 h,<2.3
same,Average result,[2]; 24 h,4.7 × 10^4
same,Log Reduction,[2]; 24 h,0.5
same,Log Value,[2]; 24 h,4.7
same,Average result,[2]; 72 h,9.3 × 10^2
same,Log Reduction,[2]; 72 h,2.2
same,Log Value,[2]; 72 h,3.0
same,Average result,[3]; 24 h,5.3 × 10^2
same,Log Reduction,[3]; 24 h,1.8
same,Log Value,[3]; 24 h,2.7
same,Average result,[3]; 72 h,<200
same,Log Reduction,[3]; 72 h,>2.2
same,Log Value,[3]; 72 h,<2.3
same,Average result,[4]; 24 h,8.0 × 10^2
same,Log Reduction,[4]; 24 h,2.0
same,Log Value,[4]; 24 h,2.9
same,Average result,[4]; 72 h,<200
same,Log Reduction,[4]; 72 h,>2.6
same,Log Value,[4]; 72 h,<2.3
same,Average result,[5]; 24 h,<200
same,Log Reduction,[5]; 24 h,>3.6
same,Log Value,[5]; 24 h,<2.3
same,Average result,[5]; 72 h,<200
same,Log Reduction,[5]; 72 h,>3.6
same,Log Value,[5]; 72 h,<2.3
same,Average result,[6]; 24 h,<200
same,Log Reduction,[6]; 24 h,>1.9
same,Log Value,[6]; 24 h,<2.3
same,Average result,[6]; 72 h,<200
same,Log Reduction,[6]; 72 h,>1.9
same,Log Value,[6]; 72 h,<2.3
same,Average result,[7]; 24 h,<200
same,Log Reduction,[7]; 24 h,>2.8
same,Log Value,[7]; 24 h,<2.3
same,Average result,[7]; 72 h,<200
same,Log Reduction,[7]; 72 h,>2.8
same,Log Value,[7]; 72 h,<2.3
same,Average result,[8]; 24 h,<200
same,Log Reduction,[8]; 24 h,>2.9
same,Log Value,[8]; 24 h,<2.3
same,Average result,[8]; 72 h,<200
same,Log Reduction,[8]; 72 h,>2.9
same,Log Value,[8]; 72 h,<2.3
same,Average result,[9]; 24 h,1.5 × 10^3
same,Log Reduction,[9]; 24 h,1.6
same,Log Value,[9]; 24 h,3.2
same,Average result,[9]; 72 h,<200
same,Log Reduction,[9]; 72 h,>2.5
same,Log Value,[9]; 72 h,<2.3
same,Average result,[10]; 24 h,<200
same,Log Reduction,[10]; 24 h,>2.5
same,Log Value,[10]; 24 h,<2.3
same,Average result,[10]; 72 h,<200
same,Log Reduction,[10]; 72 h,>2.5
same,Log Value,[10]; 72 h,<2.3
same,Average result,[11]; 24 h,<200
same,Log Reduction,[11]; 24 h,>2.3
same,Log Value,[11]; 24 h,<2.3
same,Average result,[11]; 72 h,<200
same,Log Reduction,[11]; 72 h,>2.3
same,Log Value,[11]; 72 h,<2.3
same,Average result,[12]; 24 h,<200
same,Log Reduction,[12]; 24 h,>2.5
same,Log Value,[12]; 24 h,<2.3
same,Average result,[12]; 72 h,<200
same,Log Reduction,[12]; 72 h,>2.5
same,Log Value,[12]; 72 h,<2.3
